From ChEMBL document CHEMBL2424540, “Synthesis and pharmacological evaluation of novel 1-(piperidin-4-yl)-1H-benzo[d]imidazol-2(3H)-one derivatives as potential antimicrobial agents” (2013)

Legend:
Format in all cases: functional
Aspergillus clavatus = assay: Antifungal activity against Aspergillus clavatus MTCC 1323 at 50 mg/ml after 24 hrs by disk agar diffusion technique; conditions: MTCC 1323, 24 h, read-out: DIZ
Candida albicans = assay: Antifungal activity against Candida albicans MTCC 227 at 50 mg/ml after 24 hrs by disk agar diffusion technique; conditions: MTCC 227, 24 h, read-out: DIZ
Staphylococcus aureus = assay: Antibacterial activity against Staphylococcus aureus MTCC 96 at 50 mg/ml after 24 hrs by disk agar diffusion technique; conditions: MTCC 96, 24 h, read-out: DIZ
Escherichia coli = assay: Antibacterial activity against Escherichia coli MTCC 443 at 50 mg/ml after 24 hrs by disk agar diffusion technique; conditions: MTCC 443, 24 h, read-out: DIZ
Pseudomonas aeruginosa = assay: Antibacterial activity against Pseudomonas aeruginosa MTCC 424 at 50 mg/ml after 24 hrs by disk agar diffusion technique; conditions: MTCC 424, 24 h, read-out: DIZ
Streptococcus pyogenes = assay: Antibacterial activity against Streptococcus pyogenes MTCC 442 at 50 mg/ml after 24 hrs by disk agar diffusion technique; conditions: MTCC 442, 24 h, read-out: DIZ

| SMILES | zone of inhibition at 50000 µg/mL (Aspergillus clavatus) | zone of inhibition at 50000 µg/mL (Candida albicans) | zone of inhibition at 50000 µg/mL (Staphylococcus aureus) | zone of inhibition at 50000 µg/mL (Escherichia coli) | zone of inhibition at 50000 µg/mL (Pseudomonas aeruginosa) | zone of inhibition at 50000 µg/mL (Streptococcus pyogenes) |
| --- | --- | --- | --- | --- | --- | --- |
| OC(Cn1cncn1)(Cn1cncn1)c1ccc(F)cc1F [FLUCONAZOLE] | 24 mm | 24 mm |  |  |  |  |
| COc1cc2c(cc1OC)C(N1CCC(n3c(=O)n(CCCN(C)C)c4cc(Cl)ccc43)CC1)CC2 (centres undefined) | 10 mm | 18 mm | 13 mm | 14 mm | 16 mm | 18 mm |
| CCOC(=O)Cn1c(=O)n(C2CCN(C3CCc4cc(OC)c(OC)cc43)CC2)c2ccc(Cl)cc21 (centres undefined) | 14 mm | 15 mm | 14 mm | 12 mm | 11 mm | 16 mm |
| COc1cc2c(cc1OC)C(N1CCC(n3c(=O)n(Cc4ccccc4)c4cc(Cl)ccc43)CC1)CC2 (centres undefined) | 17 mm | 25 mm | 11 mm | 11 mm | 13 mm | 10 mm |
| COc1cc2c(cc1OC)C(N1CCC(n3c(=O)n(Cc4ccc([N+](=O)[O-])cc4)c4cc(Cl)ccc43)CC1)CC2 (centres undefined) | 22 mm | 17 mm | 13 mm | 17 mm | 10 mm | 11 mm |
| CCOC(=O)n1c(=O)n(C2CCN(C3CCc4cc(OC)c(OC)cc43)CC2)c2ccc(Cl)cc21 (centres undefined) | 21 mm | 7 mm | 11 mm | 15 mm | 13 mm | 14 mm |
| COCn1c(=O)n(C2CCN(C3CCc4cc(OC)c(OC)cc43)CC2)c2ccc(Cl)cc21 (centres undefined) | 15 mm | 24 mm | 10 mm | 14 mm | 15 mm | 13 mm |
| CCN(CC)C(=O)n1c(=O)n(C2CCN(C3CCc4cc(OC)c(OC)cc43)CC2)c2ccc(Cl)cc21 (centres undefined) | 11 mm | 10 mm | 20 mm | 13 mm | 8 mm | 11 mm |
| COc1cc2c(cc1OC)C(N1CCC(n3c(=O)n(CCCl)c4cc(Cl)ccc43)CC1)CC2 (centres undefined) | 13 mm | 17 mm | 18 mm | 10 mm | 11 mm | 16 mm |
| COc1cc2c(cc1OC)C(N1CCC(n3c(=O)n(Cc4ccc(Cl)cc4)c4cc(Cl)ccc43)CC1)CC2 (centres undefined) | 19 mm | 16 mm | 17 mm | 19 mm | 9 mm | 9 mm |
| O=C(N[C@H](CO)[C@H](O)c1ccc([N+](=O)[O-])cc1)C(Cl)Cl [CHLORAMPHENICOL] |  |  | 21 mm | 23 mm | 21 mm | 20 mm |
| CC1(C)S[C@@H]2[C@H](NC(=O)[C@H](N)c3ccccc3)C(=O)N2[C@H]1C(=O)O [AMPICILLIN] |  |  | 18 mm | 20 mm | 20 mm | 19 mm |
